These results are taken from patent publication US12121530B2, “Composition and methods for treating articulating joint disorders with nucleoside reverse transcriptase inhibitors” (RHODE ISLAND HOSPITAL, priority 2018, dated 2024).

This assay relates to mouse primary chondrocytes. Nature of the assay: RT-qPCR gene expression in mouse primary chondrocytes treated with 3TC or FTC at various dosages. The conditions noted are these: mouse chondrocytes (FIG. 3H), western blot Line-1-ORF1. The format is cell-based.

On to `Nc1ccn([C@@H]2CS[C@H](CO)O2)c(=O)n1` [3TC, lamivudine], for which the “L1 expression at protein level” value is recorded as “inhibited”.
